Where two headings read alike, the source gives them in different places.

Data on 40 compounds can be found in US8080657B2, “Compounds of reverse turn mimetics and the use thereof” (Choongwae Pharma Corporation, priority 2008, dated 2011).

In test [1] the test system is MV-4-11 cells. Briefly: Cell growth inhibition assay on AML cancer cells (CellTiter 96). It is filed as cell-based. The conditions noted are these: Homo sapiens, MV4-11. As for the experimental part: The lower GI50 value means the higher inhibition activity.
Cell Growth Inhibition Activity on AML Cancer Cells (Cell Growth Inhibition Assay)
Cell growth Inhibition assay was performed to investigate the rate of inhibition of cell proliferation by the test compounds. MV-4-11 (human, Acute Myeloid Leukemia cell line) cells were cultured in Iscove's modified Dulbecco's medium (IMDM) including 10% fetal bovine serum (FBS), 1× penicillin/streptomycin (10,000 units/ml Penicillin, […] Streptomycin in 0.85% NaCl). MV-4-11 cells were harvested with IMDM medium and 5×10^4 cells/well were transferred to each well of 96 well culture plates (Nunc, #167008). The test compounds were treated with the serial dilution and duplicated for each concentration. For the serial dilution, the test compounds were repeatedly diluted with the same volume of media onto 96-well assay block (costar, #3956). After the dilution, each compound was added to each well. The background absorbance was also measured during the test compounds treatment by adding the IMDM media in replacement of test compound to the negative control plate. The plates were incubated for 3 days (72 hours) at 37° C. in the humidified incubator containing 5% CO2. On the last day, 20 μL of CellTiter 96 Aqueous One Solution (Promega #G3581) was added to the culture in each well and the plates were incubated for a few hours at 37° C. in the humidified incubator containing 5% CO2. After the incubation, the absorbance of each cell was measured at 490 nm using an EnVision (Perkinelmer, USA). The GI50 values were calculated using a Prism 3.0 program.

In test [2] the test system is Wnt signaling. The test can be described thus: TopFlash reporter gene bioassay in SW480 cells. In kind it is cell-based. Particulars: Homo sapiens, SW480, TopFlash reporter gene assay, inhibition of Wnt signaling; read-out: RGA, IC50 (μM) TopF. A general note: A reporter such as luciferase makes a cellular process visible.
Test [3] has as its target T1, cDNA-expressed human hepatic CYP3A4 (Homo sapiens, UniProt P08684).
T1 construct: purchased BD Gentest 456202
The test can be described thus: P450 CYP3A4 inhibitory activity screening (BFC substrate, fluorescence). It is filed as biochemical. The conditions noted are these: human CYP3A4 supersome, substrate BFC, 10 min incubation at 37° C.; read-out: IC50 values of Compounds against CYP3A4 activity. As for the experimental part:
P450 CYP3A4 Inhibitory Activity Screening
Assay was conducted in a 200 μL volume in 96-well microtiter plates using cDNA-expressed human hepatic CYP3A4 (supersome, BD Gentest™ #456202). 7-Benzyloxy-4-trifluoromethyl-coumarin (BFC) was used as a substrate for CYP3A4. Test articles and substrate BFC were dissolved in 100% acetonitrile. The final volume of acetonitrile in the incubation mixture was less than 1% (volume/volume). Potassium phosphate buffer (pH 7.4, final concentration 0.1 M), MgCl2 (final concentration 8.3 mM), EDTA (final concentration 1.67 mM), a test article stock solution, a CYP3A4 supersome and NADPH (final concentration 0.25 mM) were added to each well. The reaction was initiated by the addition of substrate (BFC, final concentration 30 µM) after a 10 min pre-incubation at 37° C. After 10 min incubation at 37° C., the reaction was terminated by the addition of 75 μL of acetonitrile:0.5 M Tris-base=4:1 (volume/volume). Thereafter, Fluorescent signal was measured using a fluorometer. BFC metabolite, 7-hydroxy-4-trifluoromethyl-coumarin, was measured using an excitation wavelength of 409 nm and an emission wavelength of 530 nm.

The mark [4] stands for this setting: cell growth inhibition on AML cancer cells, MV-4-11, read-out: MV-4-11, GI50.

T1 sequence (P08684 whole entry): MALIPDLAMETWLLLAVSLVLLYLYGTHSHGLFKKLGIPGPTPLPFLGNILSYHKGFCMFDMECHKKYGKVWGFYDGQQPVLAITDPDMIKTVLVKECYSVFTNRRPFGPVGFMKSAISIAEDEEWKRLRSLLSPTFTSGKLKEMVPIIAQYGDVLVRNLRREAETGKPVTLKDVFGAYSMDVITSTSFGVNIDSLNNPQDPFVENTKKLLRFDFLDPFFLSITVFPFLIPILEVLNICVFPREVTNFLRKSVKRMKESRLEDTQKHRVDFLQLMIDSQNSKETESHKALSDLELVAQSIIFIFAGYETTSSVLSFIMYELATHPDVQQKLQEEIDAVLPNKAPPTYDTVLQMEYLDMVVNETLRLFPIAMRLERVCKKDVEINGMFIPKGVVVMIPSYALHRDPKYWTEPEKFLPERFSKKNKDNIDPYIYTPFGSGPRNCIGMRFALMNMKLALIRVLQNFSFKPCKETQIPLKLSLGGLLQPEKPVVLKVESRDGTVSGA

By GI50 is commonly meant the concentration that inhibits growth by half. For the compound `C=CCOc1ccc(CN2C[C@H]3N(C(=O)CN(CC=C)N3C(=O)NCc3ccccc3)[C@@H](Cc3ccc(O)cc3)C2=O)cc1` [compound 12], in test [1] (setting [4]), the GI50 came out at 2990 nM. The same measure, in the same setting: as for `C=CCN1CC(=O)N2[C@@H](Cc3ccc(O)cc3)C(=O)N(Cc3ccc(F)c(-c4cccnc4)c3)C[C@@H]2N1C(=O)NCc1ccccc1` [compound 25], the figure is 240 nM; as for `C=CCN1CC(=O)N2[C@@H](Cc3ccc(O)cc3)C(=O)N(Cc3cccc(C(N)=O)c3)C[C@@H]2N1C(=O)NCc1ccccc1` [compound 17], 360 nM. Same read-out and setting: as for `C=CCN1CC(=O)N2[C@@H](Cc3ccc(O)cc3)C(=O)N(Cc3ccc(OC)cc3F)C[C@@H]2N1C(=O)NCc1ccccc1` [compound 10], the figure is 1320 nM. On the same count and under the same terms, as for `C=CCN1CC(=O)N2[C@@H](Cc3ccc(O)cc3)C(=O)N(Cc3ccc(F)c(Br)c3)C[C@@H]2N1C(=O)NCc1ccccc1` [compound 21], the figure is 300 nM; as for `C=CCN1CC(=O)N2[C@@H](Cc3ccc(O)cc3)C(=O)N(Cc3cccc(C(=O)NC)c3)C[C@@H]2N1C(=O)NCc1ccccc1` [compound 29], 390 nM.

In general, IC50 refers to the midpoint of a concentration-inhibition curve. Regarding `C=CCN1CC(=O)N2[C@@H](Cc3ccc(O)cc3)C(=O)N(Cc3cccc(NC(=O)OC)c3)C[C@@H]2N1C(=O)NCc1ccccc1` [compound 5], the half-maximal inhibitory concentration (IC50) in test [2] turned out to be 0.16 ± 0.08 µM. For the same compound, in test [1] (setting [4]), the GI50 came to 50 nM. For `C=CCN1CC(=O)N2[C@@H](Cc3ccc(O)cc3)C(=O)N(Cc3ccccc3-n3cnnn3)C[C@@H]2N1C(=O)NCc1ccccc1` [compound 28], the GI50 in test [1] (setting [4]) was 1350 nM. As to `C=CCN1CC(=O)N2[C@@H](Cc3ccc(O)cc3)C(=O)N(Cc3cccc(C(=O)N4CCCC4)c3)C[C@@H]2N1C(=O)NCc1ccccc1` [compound 27], the GI50 in test [1] (setting [4]) came out at 1110 nM.

Consider `C=CCN1CC(=O)N2[C@@H](Cc3ccc(O)cc3)C(=O)N(Cc3cccc(C(=O)N(C)C)n3)C[C@@H]2N1C(=O)NCc1ccccc1` [compound 45], for which, in test [1] (setting [4]), the concentration for 50% growth inhibition (GI50) was 2790 nM. Same read-out and setting: next, `C=CCN1CC(=O)N2[C@@H](Cc3ccc(O)cc3)C(=O)N(Cc3ccc(OC)c(Cl)c3)C[C@@H]2N1C(=O)NCc1ccccc1` [compound 11]: 1970 nM. Same read-out and setting: as for `C=CCN1CC(=O)N2[C@@H](Cc3ccc(O)cc3)C(=O)N(Cc3cccc(C(=O)NCCO)c3)C[C@@H]2N1C(=O)NCc1ccccc1` [compound 19], the figure is 450 nM; as for `C=CCN1CC(=O)N2[C@@H](Cc3ccc(O)cc3)C(=O)N(Cc3cccc(C(=O)NCC4CC4)c3)C[C@@H]2N1C(=O)NCc1ccccc1` [compound 40], 270 nM; as for `C=CCN1CC(=O)N2[C@@H](Cc3ccc(O)cc3)C(=O)N(Cc3cccc4c(C(C)=O)c[nH]c34)C[C@@H]2N1C(=O)NCc1ccccc1` [compound 6], 40 nM. Still for that read-out and setting: as for `C=CCN1CC(=O)N2[C@@H](Cc3ccc(O)cc3)C(=O)N(Cc3cccc(C(N)=O)n3)C[C@@H]2N1C(=O)NCc1ccccc1` [compound 43], the figure is 310 nM; as for `C=CCN1CC(=O)N2[C@@H](Cc3ccc(O)cc3)C(=O)N(Cc3ccc(OC)c(-c4ccncc4)c3)C[C@@H]2N1C(=O)NCc1ccccc1` [compound 20], 2240 nM; as for `C=CCN1CC(=O)N2[C@@H](Cc3ccc(O)cc3)C(=O)N(Cc3cccc(C(=O)NC)n3)C[C@@H]2N1C(=O)NCc1ccccc1` [compound 44], 550 nM. For `C=CCN1CC(=O)N2[C@@H](Cc3ccc(O)cc3)C(=O)N(Cc3csc4ccccc34)C[C@@H]2N1C(=O)NCc1ccccc1` [compound 3], the 50% growth inhibitory concentration (GI50) in test [1] (setting [4]) was 180 nM. On the same count and under the same terms, as for `C=CCN1CC(=O)N2[C@@H](Cc3ccc(O)cc3)C(=O)N(Cc3cccc(-c4cccnc4OC)c3)C[C@@H]2N1C(=O)NCc1ccccc1` [compound 22], the figure is 740 nM; as for `C=CCN1CC(=O)N2[C@@H](Cc3ccc(O)cc3)C(=O)N(Cc3cccc4c3OC(F)(F)O4)C[C@@H]2N1C(=O)NCc1ccccc1` [compound 2], 600 nM; as for `C=CCN1CC(=O)N2[C@@H](Cc3ccc(O)cc3)C(=O)N(Cc3cccc(C(=O)N(C)C)c3)C[C@@H]2N1C(=O)NCc1ccccc1` [compound 30], 820 nM. The same measure, in the same setting: next, `C=CCN1CC(=O)N2[C@@H](Cc3ccc(O)cc3)C(=O)N(Cc3cccc4c3ncn4CC(N)=O)C[C@@H]2N1C(=O)NCc1ccccc1` [compound 1]: 190 nM. On the same count and under the same terms, as for `C=CCN1CC(=O)N2[C@@H](Cc3ccc(O)cc3)C(=O)N(Cc3cccc(C(=O)NCCC)c3)C[C@@H]2N1C(=O)NCc1ccccc1` [compound 37], the figure is 240 nM; as for `C=CCN1CC(=O)N2[C@@H](Cc3ccc(O)cc3)C(=O)N(Cc3cccc(C(=O)NOC)c3)C[C@@H]2N1C(=O)NCc1ccccc1` [compound 18], 360 nM. On to `C=CCN1CC(=O)N2[C@@H](Cc3ccc(O)cc3)C(=O)N(Cc3cccc(C(=O)NCC4CCCCC4)c3)C[C@@H]2N1C(=O)NCc1ccccc1` [compound 39], for which, in test [1] (setting [4]), the concentration for 50% growth inhibition (GI50) is 960 nM.

As for `C=CCN1CC(=O)N2[C@@H](Cc3ccc(O)cc3)C(=O)N(Cc3cccc(C(C)(C)C)c3OC)C[C@@H]2N1C(=O)NCc1ccccc1` [compound 16], the GI50 in test [1] (setting [4]) came to 630 nM. In the case of `C=CCN1CC(=O)N2[C@@H](Cc3ccc(O)cc3)C(=O)N(Cc3ccccc3SC)C[C@@H]2N1C(=O)NCc1ccccc1` [compound 14], the 50% growth inhibitory concentration (GI50) in test [1] (setting [4]) was found to be 160 nM.

`C=CCN1CC(=O)N2[C@@H](Cc3ccc(O)cc3)C(=O)N(Cc3cccc(C(=O)OCC)n3)C[C@@H]2N1C(=O)NCc1ccccc1` [compound 42]: the GI50 in test [1] (setting [4]) came out at 640 nM. Same read-out and setting: as for `C=CCN1CC(=O)N2[C@@H](Cc3ccc(O)cc3)C(=O)N(Cc3cccc(C(=O)Nc4cc[nH]n4)c3)C[C@@H]2N1C(=O)NCc1ccccc1` [compound 41], the figure is 1560 nM. For `C=CCN1CC(=O)N2[C@@H](Cc3ccc(O)cc3)C(=O)N(Cc3cccc(C(N)=O)c3[N+](=O)[O-])C[C@@H]2N1C(=O)NCc1ccccc1` [compound 31], in test [1] (setting [4]), the GI50 amounted to 5750 nM.

Consider `C=CCN1CC(=O)N2[C@@H](Cc3ccc(O)cc3)C(=O)N(Cc3cccc(C(=O)NCCCOCCCC)c3)C[C@@H]2N1C(=O)NCc1ccccc1` [compound 33], for which the 50% growth inhibitory concentration (GI50) in test [1] (setting [4]) came to 650 nM.

For `C=CCN1CC(=O)N2[C@@H](Cc3ccc(O)cc3)C(=O)N(Cc3cccc(C(=O)NCCOC)c3)C[C@@H]2N1C(=O)NCc1ccccc1` [Compound B], the GI50 in test [1] (MV-4-11 cells, 72 hours, read-out: GI50, cell growth inhibition of MV-4-11 AML cancer cells) came out at 188 nM. For the same compound, the 50% inhibitory concentration (IC50) in test [3] stood at 34600 nM. As to `C=CCN1CC(=O)N2[C@@H](Cc3ccc(O)cc3)C(=O)N(Cc3cccc(C(=O)N4CCCCC4)c3)C[C@@H]2N1C(=O)NCc1ccccc1` [compound 26], in test [1] (setting [4]), the GI50 came out at 780 nM. On the same count and under the same terms, next, `C=CCN1CC(=O)N2[C@@H](Cc3ccc(O)cc3)C(=O)N(Cc3ccccc3N3CCCC3)C[C@@H]2N1C(=O)NCc1ccccc1` [compound 13]: 2010 nM.

Consider `C=CCN1CC(=O)N2[C@@H](Cc3ccc(O)cc3)C(=O)N(Cc3cccc(Cl)c3N(C)C)C[C@@H]2N1C(=O)NCc1ccccc1` [compound 34], for which the GI50 in test [1] (setting [4]) came to 1250 nM. The same measure, in the same setting: as for `C=CCN1CC(=O)N2[C@@H](Cc3ccc(O)cc3)C(=O)N(Cc3ccc(CP(=O)(O)O)cc3)C[C@@H]2N1C(=O)NCc1ccccc1` [compound 32], the figure is over 50000 nM; as for `C=CCN1CC(=O)N2[C@@H](Cc3ccc(O)cc3)C(=O)N(Cc3cccc(-c4ncc[nH]4)c3)C[C@@H]2N1C(=O)NCc1ccccc1` [compound 35], 1120 nM.

As for `C=CCN1CC(=O)N2[C@@H](Cc3ccc(O)cc3)C(=O)N(Cc3cccc(C(=O)NNC(=O)OC(C)(C)C)c3)C[C@@H]2N1C(=O)NCc1ccccc1` [compound 23], the GI50 in test [1] (setting [4]) was 960 nM. The same measure, in the same setting: as for `C=CCN1CC(=O)N2[C@@H](Cc3ccc(O)cc3)C(=O)N(Cc3cccc(C(=O)NN)c3)C[C@@H]2N1C(=O)NCc1ccccc1` [compound 24], the figure is 2030 nM; as for `C=CCN1CC(=O)N2[C@@H](Cc3ccc(O)cc3)C(=O)N(Cc3cccc(OC)c3OC)C[C@@H]2N1C(=O)NCc1ccccc1` [compound 15], 2140 nM.
